Assay results published in publication PMC10897598, “TwinF interface inhibitor FP802 stops loss of motor neurons and mitigates disease progression in a mouse model of ALS” (Cell Reports Medicine, 2024).

Key:
30 common targets = experiment: Pharmacology safety screening, radioligand binding assays; details: 10 µM; significant = over 50% inhibition or stimulation
Method: Pharmacology safety of FP802 was evaluated in radio ligand binding assays carried out by Eurofins Panlabs Discovery Services Taiwan, Ltd. Significant responses are defined as over 50% inhibition or stimulation in the primary assays.
Table S1. Pharmacology safety profile of FP802. […]

[1] = FP802 concentration in the spinal cord after subcutaneous osmotic pump delivery; type: in vivo
Excerpt: We next used FP802 in the transgenic SOD1^G93A mouse model of ALS that expresses mutant human SOD1 with a glycine to alanine substitution at position 93 and whose general features resemble ALS in humans.[24]^,[25] SOD1^G93A mice represent a widely accepted animal model used extensively in ALS drug discovery to evaluate the efficacy of compounds now in clinical trials, which include masitinib, pridopidine, fasudil, guanabenz, and AMX0035.[26]^,[27]^,[28]^,[29]^,[30]^,[31]^,[32] We first confirmed using immunoblot analysis the reduction of EAAT2/GLT-1 expression in the spinal cord of SOD1^G93A mice (Figures 1F and 1G). Deregulation of glutamate uptake systems may lead to an increase in toxic eNMDAR signaling, which could be the cause of motor neuron death. To test this hypothesis, we applied FP802 subcutaneously to SOD1^G93A mice using an implanted ALZET osmotic mini pump to achieve a steady release of the drug. […] Following successful deactivation of the NMDAR/TRPM4 death signaling complex by FP802 in vivo, we next assessed potential therapeutic benefits of FP802 in SOD1^G93A mice. To implement an experimental design that resembles a clinical situation, we started treatment of SOD1^G93A mice with FP802 at the time of onset of motor deficits, which was around week 15.[33]^,[34]
(§1) A total of 83 heterozygous SOD1^G93A and 22 wild-type littermates were employed in this study. Eight WT and 12 SOD1^G93A mice were used to determine the EAAT2 protein levels in the spinal cord. Three SOD1^G93A mice were treated with FP802 to explore the concentration of FP802 in the spinal cord. Four SOD1^G93A mice were used to test the tolerability of mice to subcutaneously ALZET osmotic pump (type 2004) implantation with FP802 that allowed a continuous and constant supply of compound to the animals for 4 weeks. Eight wild-type mice were used to explore the disruption of the NMDAR/TRPM4 death signaling complex by FP802. In total, 52 SOD1^G93A mice were treated with FP802 or vehicle via ALZET osmotic pump from week 15 for 30 days (four cohorts). […]

NMDAR/TRPM4 complex = target: T1, NMDAR/TRPM4 complex (Mus musculus, UniProt Q7TN37); experiment: Co-immunoprecipitation of the NMDAR/TRPM4 complex from lumbar spinal cord lysates of treated animals; type: in vivo; details: two weeks after osmotic pump implantation
T1 construct: Lumbar spinal cords were dissected from mice two weeks after ALZET osmotic pump (1002) implantation; from tissue; host or cells: lumbar spinal cord of wild-type mice treated in vivo with vehicle or FP802
T1 sequence (Q7TN37 whole entry, one chain of several): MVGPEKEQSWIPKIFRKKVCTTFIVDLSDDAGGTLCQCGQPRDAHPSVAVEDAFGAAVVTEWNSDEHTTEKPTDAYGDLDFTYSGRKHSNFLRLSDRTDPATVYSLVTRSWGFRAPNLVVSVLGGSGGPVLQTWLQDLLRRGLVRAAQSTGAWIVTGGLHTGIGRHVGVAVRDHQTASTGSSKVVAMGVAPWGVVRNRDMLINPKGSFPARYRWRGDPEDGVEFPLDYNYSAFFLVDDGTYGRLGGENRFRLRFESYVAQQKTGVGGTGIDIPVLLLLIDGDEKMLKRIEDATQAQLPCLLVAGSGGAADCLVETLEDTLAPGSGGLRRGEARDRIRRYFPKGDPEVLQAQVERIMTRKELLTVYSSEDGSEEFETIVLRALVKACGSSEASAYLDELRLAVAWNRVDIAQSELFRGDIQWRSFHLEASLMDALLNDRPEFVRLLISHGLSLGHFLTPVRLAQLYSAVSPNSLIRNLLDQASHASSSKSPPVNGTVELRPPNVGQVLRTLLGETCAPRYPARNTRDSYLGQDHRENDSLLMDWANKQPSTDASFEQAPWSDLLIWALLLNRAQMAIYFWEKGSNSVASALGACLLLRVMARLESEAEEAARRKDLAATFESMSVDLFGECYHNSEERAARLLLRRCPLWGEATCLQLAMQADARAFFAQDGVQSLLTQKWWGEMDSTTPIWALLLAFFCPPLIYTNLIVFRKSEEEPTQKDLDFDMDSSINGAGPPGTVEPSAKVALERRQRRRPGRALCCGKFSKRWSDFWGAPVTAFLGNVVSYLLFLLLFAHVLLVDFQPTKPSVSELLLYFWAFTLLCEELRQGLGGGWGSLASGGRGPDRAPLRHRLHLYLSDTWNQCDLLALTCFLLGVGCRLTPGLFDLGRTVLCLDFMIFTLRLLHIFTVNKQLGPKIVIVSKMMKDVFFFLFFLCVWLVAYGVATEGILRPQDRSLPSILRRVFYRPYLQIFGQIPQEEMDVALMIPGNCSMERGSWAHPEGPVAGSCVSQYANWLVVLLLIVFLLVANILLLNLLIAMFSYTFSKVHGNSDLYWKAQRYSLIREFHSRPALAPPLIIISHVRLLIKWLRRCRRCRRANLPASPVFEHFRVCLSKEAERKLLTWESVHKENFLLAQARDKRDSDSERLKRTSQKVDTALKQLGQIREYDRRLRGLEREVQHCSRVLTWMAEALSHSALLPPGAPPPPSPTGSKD
Method: as §1, with “cohorts). It was not possible to extend the treatment beyond the 30 days application period because the poor health state of many animals was incompatible with the anesthesia required for surgical implantation of a second osmotic pump. The number of animals used for experiments was specified in the figure legends.” for “cohorts).”
All procedures for immunoprecipitation were carried out at 4°C as described before.[20] […] Protein concentrations of the supernatants were measured using the Pierce BCA Protein Assay Kit. […]

[2] = Hematology of treated SOD1G93A mice; type: in vivo, mouse; details: 40 mg/kg/day s.c. pump
Method: (§2) All hematology and most serum clinical chemistry analyses were carried out by IDEXX Laboratories, Germany. The neurofilament light chain levels in serum were determined by PBL Assay Science (USA) using the Simoa NF-light Advantage Kit (Quanterix Cat #103186).
(§3) Vehicle FP802 n Significance 95% Interval
Anisocytosis (%) 0 0 4 n.a. -
Band neutrophils 0 0 4 n.a. -
Basophils (%) 0 0 4 n.a. -
Atypical cells 0 0 4 n.a. -
Table S2. Hematology of SOD1G93A mice treated with vehicle or FP802.
(§4) FP802 delivered with a subcutaneously implanted ALZET osmotic pump at 40 mg/kg/day for 4 weeks starting at
References were from Charles
River Laboratories datasheets for C57BL6 mice. Related to Figure 2.

[3] = Serum clinical chemistry of treated SOD1G93A mice; type: in vivo, mouse; details: 40 mg/kg/day s.c. pump
Method: as §2, §3
Table S3. Clinical chemistry serum parameters of SOD1G93A mice treated with vehicle or FP802.
as §4
References were from Charles River Laboratories datasheets for C57BL6 mice. Related to Figure 2.

CCN(CCN)Cc1cccc(Cl)c1 [FP802]
binding activities in radioligand binding safety panel (30 common targets): No significant binding activities | concentration in the spinal cord ([1]; SOD1G93A mice, 40 mg/kg/day s.c. ALZET osmotic pump, 2 weeks, n = 3): 7.54 ± 4.79 nmol/g | concentration at 2 weeks ([1]; SOD1G93A transgenic, mouse, spinal cord, sc, SOD1G93A mice, 40 mg/kg/day s.c., 2 weeks, read-out: concentration in the spinal cord, corresponding molar concentration): 3 to 12 µM | crossing of the mouse blood-spinal cord barrier ([1]; s.c. ALZET osmotic mini pump): readily crossed | interaction of TRPM4 with the NMDAR subunit GluN2B (co-immunoprecipitation) (NMDAR/TRPM4 complex): disrupted | Anisocytosis ([2]; 4 weeks): 0% | Atypical cells ([2]; 4 weeks): 0 | Band neutrophils ([2]; 4 weeks): 0 | Basophils ([2]; 4 weeks): 0% | Eosinophils ([2]; 4 weeks): 0.25 ± 0.50% | Hematocrit ([2]; 4 weeks): 50.25 ± 1.71% | Hemoglobin ([2]; 4 weeks): 14.13 ± 0.68 g/dL | Leukocytes ([2]; 4 weeks): 3.53 ± 1.32 G/L | Lymphocyte ([2]; 4 weeks): 71.50 ± 5.57% | MCH ([2]; 4 weeks): 14.00 ± 0.12 pg | MCHC ([2]; 4 weeks): 28.50 ± 0.58 g/dL | MCV ([2]; 4 weeks): 49.75 ± 0.50 fL | Monocyte ([2]; 4 weeks): 4.25 ± 1.26% | Reticulocyte ([2]; 4 weeks): 5.10 ± 0.81% | Segmented neutrophils ([2]; 4 weeks): 22.50 ± 6.40% | Thrombocytes ([2]; 4 weeks): 1506.00 ± 174.68 G/L | adverse effects on the hematology ([2]; 4 weeks): no adverse effects | Erythrocyte ([2]; 4 weeks from 15 weeks of age): 10.08 ± 0.38 T/L | adverse effects on the serum clinical chemistry parameters ([3]; 4 weeks): no adverse effects | ALT ([3]; serum, 4 weeks): 32.60 ± 8.30 U/L | AST ([3]; serum, 4 weeks): 195.20 ± 147.29 U/L | Alkaline phosphatase ([3]; serum, 4 weeks): 69.40 ± 6.84 U/L | Calcium ([3]; serum, 4 weeks): 2.35 ± 0.06 mmol/L | Chloride ([3]; serum, 4 weeks): 111.20 ± 3.03 mmol/L | Cholesterol ([3]; serum, 4 weeks): 2.68 ± 0.60 mmol/L | Creatine kinase ([3]; serum, 4 weeks): 1500 ± 1475 U/L | Creatinine ([3]; serum, 4 weeks): 9.00 ± 2.16 µmol/L | GGT ([3]; serum, 4 weeks): Not detectable | Inorganic phosphate ([3]; serum, 4 weeks): 3.26 ± 0.18 mmol/L | LDH ([3]; serum, 4 weeks): 813.3 ± 474.5 U/L | Lipase ([3]; serum, 4 weeks): 32.80 ± 4.15 U/L | Potassium ([3]; serum, 4 weeks): 9.02 ± 3.83 mmol/L | Sodium ([3]; serum, 4 weeks): 149.6 ± 3.9 mmol/L | Total protein ([3]; serum, 4 weeks): 50.00 ± 0.71 g/L | Triglycerides ([3]; serum, 4 weeks): 0.48 ± 0.13 g/L | Urea (BUN) ([3]; serum, 4 weeks): 7.58 ± 1.32 mmol/L | Albumin ([3]; serum, 4 weeks from 15 weeks of age): 28.00 ± 1.00 g/L
